From ChEMBL document CHEMBL5465560, “Selectivity Literature for EUbOPEN Chemogenomic Library” (2024) come the findings set out here.

The target of test [1] is T1, Tyrosine-protein kinase ITK/TSK (Homo sapiens) (UniProt Q08881).
T1 sequence (whole entry): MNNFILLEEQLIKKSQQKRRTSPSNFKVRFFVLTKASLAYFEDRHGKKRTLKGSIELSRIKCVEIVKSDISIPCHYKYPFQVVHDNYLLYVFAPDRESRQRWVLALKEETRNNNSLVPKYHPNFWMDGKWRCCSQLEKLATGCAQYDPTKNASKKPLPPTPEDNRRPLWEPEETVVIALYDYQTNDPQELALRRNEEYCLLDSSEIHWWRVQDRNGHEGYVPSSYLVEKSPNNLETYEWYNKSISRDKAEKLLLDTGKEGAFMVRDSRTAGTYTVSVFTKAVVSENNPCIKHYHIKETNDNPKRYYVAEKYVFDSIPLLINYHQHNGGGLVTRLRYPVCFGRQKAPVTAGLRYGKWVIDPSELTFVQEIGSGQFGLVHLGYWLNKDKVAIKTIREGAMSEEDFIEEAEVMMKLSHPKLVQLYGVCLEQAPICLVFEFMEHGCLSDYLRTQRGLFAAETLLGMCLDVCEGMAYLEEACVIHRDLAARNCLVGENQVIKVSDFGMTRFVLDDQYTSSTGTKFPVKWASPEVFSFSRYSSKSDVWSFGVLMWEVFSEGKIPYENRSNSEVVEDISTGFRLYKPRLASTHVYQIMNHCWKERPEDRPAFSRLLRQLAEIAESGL
Description: Selectivity interaction (SelectScreen profiling (Invitrogen)) EUB0000607a ITK. The following applies: at 2 µM.

For test [2], the target named is Casein kinase I isoform delta (Homo sapiens, UniProt P48730). The following applies: at 10 µM.
Sequence of Casein kinase I isoform delta (P48730 whole entry, looked up, canonical isoform): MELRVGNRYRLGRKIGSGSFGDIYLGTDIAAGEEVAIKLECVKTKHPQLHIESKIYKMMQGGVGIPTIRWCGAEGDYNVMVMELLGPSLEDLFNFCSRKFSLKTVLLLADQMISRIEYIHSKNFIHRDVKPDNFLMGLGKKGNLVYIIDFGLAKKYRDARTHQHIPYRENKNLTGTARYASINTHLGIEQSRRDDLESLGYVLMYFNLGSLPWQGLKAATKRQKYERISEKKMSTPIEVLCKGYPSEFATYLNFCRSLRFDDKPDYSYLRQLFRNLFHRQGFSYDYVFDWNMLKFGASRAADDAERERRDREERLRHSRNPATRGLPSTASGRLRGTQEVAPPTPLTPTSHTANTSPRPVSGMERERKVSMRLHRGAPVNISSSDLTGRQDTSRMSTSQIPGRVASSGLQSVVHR
The next test has as its target SRSF protein kinase 1 (Homo sapiens, UniProt Q96SB4). The following applies: at 10 µM.
Test [3] addresses Bone morphogenetic protein receptor type-1A (Homo sapiens, UniProt P36894). Description: Selectivity interaction (Kinase panel (Invitrogen)) EUB0000639a BMPR1A. The following applies: at 200 nM.
Test [4] has as its system Epidermal growth factor receptor (Homo sapiens), P00533 [UNDEFINED MUTATION]. As to the kind of experiment: Selectivity interaction (KinomeScan (DiscoverX)) EUB0000045b EGFR. The following applies: at 10 µM.
Test [5] concerns the target T2, Phosphatidylinositol 5-phosphate 4-kinase type-2 gamma (Homo sapiens) (UniProt Q8TBX8).
T2 sequence (whole entry): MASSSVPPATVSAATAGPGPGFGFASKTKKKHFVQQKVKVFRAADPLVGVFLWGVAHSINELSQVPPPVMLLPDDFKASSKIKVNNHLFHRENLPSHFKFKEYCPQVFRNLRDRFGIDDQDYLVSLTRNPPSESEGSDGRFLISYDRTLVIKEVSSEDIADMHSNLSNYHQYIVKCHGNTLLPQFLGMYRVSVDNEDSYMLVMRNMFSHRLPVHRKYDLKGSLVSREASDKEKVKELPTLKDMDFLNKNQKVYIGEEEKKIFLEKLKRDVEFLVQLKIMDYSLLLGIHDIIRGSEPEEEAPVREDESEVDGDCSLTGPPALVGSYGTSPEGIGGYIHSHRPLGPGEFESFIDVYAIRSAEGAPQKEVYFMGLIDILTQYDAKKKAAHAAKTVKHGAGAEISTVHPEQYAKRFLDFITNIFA
As to the kind of experiment: Selectivity interaction (Ambit KINOMEscan and KiNATiv profiling in Jurkat cells) EUB0000090b PIP4K2C. In kind it is cell-based. The following applies: at 1 µM.

The target in test [6] is T3, MAP kinase-activated protein kinase 5 (Homo sapiens) (UniProt Q8IW41).
T3 sequence (whole entry): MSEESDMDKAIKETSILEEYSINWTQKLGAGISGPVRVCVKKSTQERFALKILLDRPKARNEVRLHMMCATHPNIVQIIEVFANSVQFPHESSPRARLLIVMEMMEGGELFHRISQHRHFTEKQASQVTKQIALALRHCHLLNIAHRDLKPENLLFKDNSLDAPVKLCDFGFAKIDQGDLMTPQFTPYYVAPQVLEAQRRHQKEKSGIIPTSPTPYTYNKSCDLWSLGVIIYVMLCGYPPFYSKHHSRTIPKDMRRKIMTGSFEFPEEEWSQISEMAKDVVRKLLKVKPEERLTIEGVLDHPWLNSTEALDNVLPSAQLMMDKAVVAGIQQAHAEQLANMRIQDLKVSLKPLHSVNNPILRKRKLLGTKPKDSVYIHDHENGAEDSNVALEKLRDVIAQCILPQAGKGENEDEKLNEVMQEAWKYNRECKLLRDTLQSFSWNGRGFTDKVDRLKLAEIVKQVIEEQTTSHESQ
As to the kind of experiment: Selectivity interaction (Ambit KINOMEscan and KiNATiv profiling in Jurkat cells) EUB0000090b MAPKAPK5. Format: cell-based. The following applies: at 1 µM.

Test [7] concerns Platelet-derived growth factor receptor alpha (Homo sapiens), P16234 [V561D]. As to the kind of experiment: (§1) Selectivity interaction (Kinase panel (Carna Biosciences)) EUB0001542aTs PDGFRA. The following applies: at 1 µM.
Sequence of Platelet-derived growth factor receptor alpha (Homo sapiens), P16234 [V561D] (P16234 whole entry V561D): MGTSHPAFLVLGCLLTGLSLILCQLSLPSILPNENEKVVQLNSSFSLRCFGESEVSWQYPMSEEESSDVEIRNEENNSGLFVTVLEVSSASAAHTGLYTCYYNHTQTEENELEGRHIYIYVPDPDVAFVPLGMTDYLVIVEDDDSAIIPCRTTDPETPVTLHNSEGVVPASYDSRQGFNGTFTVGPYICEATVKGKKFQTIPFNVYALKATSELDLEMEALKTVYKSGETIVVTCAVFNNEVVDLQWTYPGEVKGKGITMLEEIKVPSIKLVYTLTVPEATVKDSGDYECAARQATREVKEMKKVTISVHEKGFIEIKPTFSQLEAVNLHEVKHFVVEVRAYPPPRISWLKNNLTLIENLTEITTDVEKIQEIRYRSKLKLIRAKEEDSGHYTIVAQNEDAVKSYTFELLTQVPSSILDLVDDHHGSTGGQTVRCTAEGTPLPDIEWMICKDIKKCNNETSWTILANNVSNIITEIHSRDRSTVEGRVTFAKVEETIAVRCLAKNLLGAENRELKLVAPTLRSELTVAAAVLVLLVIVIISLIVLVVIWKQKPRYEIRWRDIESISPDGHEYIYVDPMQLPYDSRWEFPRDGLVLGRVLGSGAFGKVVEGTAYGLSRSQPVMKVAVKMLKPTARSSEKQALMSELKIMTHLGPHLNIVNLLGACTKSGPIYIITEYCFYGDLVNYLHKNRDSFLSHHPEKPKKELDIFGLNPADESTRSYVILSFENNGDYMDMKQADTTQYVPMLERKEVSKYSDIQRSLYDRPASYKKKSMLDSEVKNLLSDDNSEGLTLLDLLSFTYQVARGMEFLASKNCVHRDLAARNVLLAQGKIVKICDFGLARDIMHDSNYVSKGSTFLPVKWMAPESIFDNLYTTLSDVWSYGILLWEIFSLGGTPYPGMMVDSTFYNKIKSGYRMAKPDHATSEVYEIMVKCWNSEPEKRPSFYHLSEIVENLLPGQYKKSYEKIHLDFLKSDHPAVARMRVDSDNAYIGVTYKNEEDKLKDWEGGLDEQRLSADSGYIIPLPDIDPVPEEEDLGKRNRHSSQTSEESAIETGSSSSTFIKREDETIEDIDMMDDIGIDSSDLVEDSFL
Test [8] concerns Platelet-derived growth factor receptor alpha (Homo sapiens), P16234 [T674I]. The description is as §1. The following applies: at 1 µM.
Sequence of Platelet-derived growth factor receptor alpha (Homo sapiens), P16234 [T674I] (P16234 whole entry T674I): as the sequence (P16234 whole entry V561D) above, with D561V, T674I counted along it
For test [9], the target named is Platelet-derived growth factor receptor alpha (Homo sapiens, UniProt P16234). The test is described as §1. The following applies: at 1 µM.
Sequence of Platelet-derived growth factor receptor alpha (P16234 whole entry): as the sequence (P16234 whole entry V561D) above, with D561V counted along it
Test [10] concerns the target T4, Tyrosine-protein kinase ZAP-70 (Homo sapiens) (UniProt P43403).
T4 sequence (whole entry): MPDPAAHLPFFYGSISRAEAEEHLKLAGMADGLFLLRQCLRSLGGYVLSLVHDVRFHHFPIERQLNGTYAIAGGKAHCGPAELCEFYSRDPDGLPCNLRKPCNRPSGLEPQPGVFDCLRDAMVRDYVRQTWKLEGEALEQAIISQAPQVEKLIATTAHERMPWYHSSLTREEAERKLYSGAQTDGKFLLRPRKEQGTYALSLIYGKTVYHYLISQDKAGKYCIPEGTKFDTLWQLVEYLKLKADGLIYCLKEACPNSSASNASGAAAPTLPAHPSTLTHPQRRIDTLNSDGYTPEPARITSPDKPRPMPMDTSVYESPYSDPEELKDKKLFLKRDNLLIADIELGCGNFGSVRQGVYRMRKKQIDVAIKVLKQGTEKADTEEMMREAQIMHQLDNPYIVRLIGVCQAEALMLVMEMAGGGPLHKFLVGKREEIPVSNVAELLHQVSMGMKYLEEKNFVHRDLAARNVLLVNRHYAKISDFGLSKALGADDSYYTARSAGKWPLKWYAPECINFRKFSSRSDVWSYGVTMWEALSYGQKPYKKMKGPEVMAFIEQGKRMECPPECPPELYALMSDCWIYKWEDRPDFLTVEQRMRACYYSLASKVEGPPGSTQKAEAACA
Description: Selectivity interaction (Millipore kinase profiler) EUB0000124b ZAP70. The following applies: at 10 µM.

Sequence of SRSF protein kinase 1 (Q96SB4 whole entry): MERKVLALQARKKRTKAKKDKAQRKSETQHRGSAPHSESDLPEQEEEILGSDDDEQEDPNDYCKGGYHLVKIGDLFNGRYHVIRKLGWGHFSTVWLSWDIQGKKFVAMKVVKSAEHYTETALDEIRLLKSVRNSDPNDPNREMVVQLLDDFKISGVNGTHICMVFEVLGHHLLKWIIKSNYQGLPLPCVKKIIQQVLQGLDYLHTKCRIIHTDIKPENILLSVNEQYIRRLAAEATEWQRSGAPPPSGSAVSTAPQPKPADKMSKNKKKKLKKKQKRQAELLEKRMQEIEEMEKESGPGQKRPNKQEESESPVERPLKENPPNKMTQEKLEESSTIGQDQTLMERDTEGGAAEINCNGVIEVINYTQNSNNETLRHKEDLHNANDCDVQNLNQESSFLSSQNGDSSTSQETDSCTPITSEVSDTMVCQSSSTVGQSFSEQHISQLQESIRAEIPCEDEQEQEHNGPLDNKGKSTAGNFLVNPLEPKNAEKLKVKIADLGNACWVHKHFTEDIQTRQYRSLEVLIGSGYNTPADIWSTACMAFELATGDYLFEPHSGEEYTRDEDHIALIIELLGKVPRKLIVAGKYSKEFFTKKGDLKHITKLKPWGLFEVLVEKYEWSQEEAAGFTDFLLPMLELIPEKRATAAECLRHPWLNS
Sequence of Bone morphogenetic protein receptor type-1A (P36894 whole entry): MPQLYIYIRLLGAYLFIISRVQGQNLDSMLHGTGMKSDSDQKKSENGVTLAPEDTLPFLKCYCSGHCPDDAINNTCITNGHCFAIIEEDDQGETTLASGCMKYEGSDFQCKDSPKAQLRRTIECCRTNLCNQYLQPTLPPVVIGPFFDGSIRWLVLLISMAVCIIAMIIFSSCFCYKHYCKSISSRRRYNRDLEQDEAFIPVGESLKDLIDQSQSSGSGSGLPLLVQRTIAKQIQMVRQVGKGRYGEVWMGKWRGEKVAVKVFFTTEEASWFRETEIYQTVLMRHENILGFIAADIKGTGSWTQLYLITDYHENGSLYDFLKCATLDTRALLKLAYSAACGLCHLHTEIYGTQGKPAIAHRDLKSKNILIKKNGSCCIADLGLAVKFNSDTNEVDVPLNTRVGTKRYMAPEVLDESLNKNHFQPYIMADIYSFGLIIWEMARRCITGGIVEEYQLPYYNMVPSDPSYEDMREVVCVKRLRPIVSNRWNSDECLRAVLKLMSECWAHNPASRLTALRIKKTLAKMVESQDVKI
Sequence of Epidermal growth factor receptor (Homo sapiens), P00533 [UNDEFINED MUTATION] (P00533 whole entry, looked up, change not shown): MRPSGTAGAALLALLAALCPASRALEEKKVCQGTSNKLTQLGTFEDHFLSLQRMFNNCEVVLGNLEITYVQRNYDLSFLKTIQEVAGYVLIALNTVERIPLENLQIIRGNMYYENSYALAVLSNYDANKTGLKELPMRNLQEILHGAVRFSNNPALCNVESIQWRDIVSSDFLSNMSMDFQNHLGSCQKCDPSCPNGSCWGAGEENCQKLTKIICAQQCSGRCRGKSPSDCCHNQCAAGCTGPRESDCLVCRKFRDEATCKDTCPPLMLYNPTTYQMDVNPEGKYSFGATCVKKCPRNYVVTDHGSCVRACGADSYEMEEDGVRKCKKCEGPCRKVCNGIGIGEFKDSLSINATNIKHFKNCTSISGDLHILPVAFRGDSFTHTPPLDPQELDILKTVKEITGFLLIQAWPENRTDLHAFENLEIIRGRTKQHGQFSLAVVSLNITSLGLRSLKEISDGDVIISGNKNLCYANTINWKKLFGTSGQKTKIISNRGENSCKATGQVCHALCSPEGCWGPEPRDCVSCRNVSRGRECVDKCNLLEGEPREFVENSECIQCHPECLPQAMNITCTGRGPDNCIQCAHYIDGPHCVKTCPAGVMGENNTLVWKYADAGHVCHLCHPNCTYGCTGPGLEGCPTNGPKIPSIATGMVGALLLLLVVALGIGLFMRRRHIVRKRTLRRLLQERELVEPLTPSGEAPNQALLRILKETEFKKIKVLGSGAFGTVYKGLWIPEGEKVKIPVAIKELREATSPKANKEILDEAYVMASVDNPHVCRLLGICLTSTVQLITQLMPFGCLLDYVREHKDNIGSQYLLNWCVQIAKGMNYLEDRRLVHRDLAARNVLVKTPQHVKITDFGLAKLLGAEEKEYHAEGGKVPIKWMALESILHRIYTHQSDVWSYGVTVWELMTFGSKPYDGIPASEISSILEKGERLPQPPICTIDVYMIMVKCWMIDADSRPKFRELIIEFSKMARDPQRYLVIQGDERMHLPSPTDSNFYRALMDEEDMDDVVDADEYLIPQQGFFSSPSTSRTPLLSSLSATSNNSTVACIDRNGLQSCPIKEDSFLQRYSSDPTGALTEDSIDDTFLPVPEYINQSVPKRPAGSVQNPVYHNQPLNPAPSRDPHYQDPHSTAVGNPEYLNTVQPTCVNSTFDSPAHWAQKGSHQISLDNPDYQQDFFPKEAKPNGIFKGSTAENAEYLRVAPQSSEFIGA

Compound `CNC(=O)Nc1ccc(-c2nc(N3CC4CCC(C3)O4)c3cnn(C4CCC5(CC4)OCCO5)c3n2)cc1` had a % of inhibition in [1] of 2%.

On to `Cc1cc([C@@H](C)Nc2ccccc2C(=O)O)c2nc(N3CCOCC3)cc(=O)n2c1` [AZD-6482], for which the % of control in [2] was 86%; at SRSF protein kinase 1, 100%. As to `CC[C@@H]1[C@H](F)C(=O)N[C@@H]1COc1nccc2cc(C(N)=O)c(OC)cc12` [ZIMLOVISERTIB], the % of inhibition in test [3] was found to be 20.8%. In test [4], `C=CC(=O)Nc1cc(-n2c(=O)ccc3cnc4ccc(-c5ccc(NS(C)(=O)=O)cc5)cc4c32)ccc1C` registered a % of control of 65%. Regarding `CN(C)C/C=C/C(=O)Nc1ccc(C(=O)N2CCCC(Nc3ncc(Cl)c(-c4c[nH]c5ccccc45)n3)C2)cc1` (stereo unspecified), the % of control worked out at 91% in test [5] and 99% in [6]. Consider `Cn1cc(Nc2nccc(N3CC4CCC(C3)N4C(=O)[C@@H]3CC3(F)F)n2)cn1`, for which the % of inhibition stood at 60% in test [7], 78% in test [8] and 70% in test [9]. As to `CC(=O)Nc1cccc(-n2c(=O)n(C3CC3)c(=O)c3c(Nc4ccc(I)cc4F)n(C)c(=O)c(C)c32)c1`, in test [10], the % of control is 111%.
